Source: PubChem BioAssay AID2060903 (Molecular Pharmacology Branch, DTP, NCI, 2025)
pIC50: −log10 of the molar value. Values joined by “and” are separate entries in the source; they are usually repeats but may differ in a detail not shown here. Identical values can stand only once.

Tested on: 377384-186-R-J1-PDC complex spheroid viability
Experiment: Anticancer human tumor 377384-186-R-J1-PDC patient-derived pancreatic carcinoma cell line growth inhibition [RAS]
Settings: for pIC50: curve of first compound; for viability, T/C: stronger effect = lower value; active = viability on the fitted dose curve at most 10% of control; inactive = the rest
Summary of the method: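 Tumour cells grown as complex spheroids with HUVEC endothelial cells and mesenchymal stem cells, treated with RAS pathway inhibitor combinations. Each agent spans half-log steps from near clinical Cmax, or 10 microM where Cmax is unknown.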

[1] = second compound 0.000949 µM, first compound 0.0316 µM
[2] = second compound 0.000949 µM, first compound 0.1 µM
[3] = second compound 0.000949 µM, first compound 0.316 µM
[4] = second compound 0.000949 µM, first compound 1 µM
[5] = second compound 0.000949 µM, first compound 3.16 µM
[6] = second compound 0.000949 µM, first compound 10 µM
[7] = second compound 0.003 µM, first compound 0.0316 µM
[8] = second compound 0.003 µM, first compound 0.1 µM
[9] = second compound 0.003 µM, first compound 0.316 µM
[10] = second compound 0.003 µM, first compound 1 µM
[11] = second compound 0.003 µM, first compound 3.16 µM
[12] = second compound 0.003 µM, first compound 10 µM
[13] = second compound 0.00949 µM, first compound 0.0316 µM
[14] = second compound 0.00949 µM, first compound 0.1 µM
[15] = second compound 0.00949 µM, first compound 0.316 µM
[16] = second compound 0.00949 µM, first compound 1 µM
[17] = second compound 0.00949 µM, first compound 3.16 µM
[18] = second compound 0.00949 µM, first compound 10 µM
[19] = second compound 0.03 µM, first compound 0.0316 µM
[20] = second compound 0.03 µM, first compound 0.1 µM
[21] = second compound 0.03 µM, first compound 0.316 µM
[22] = second compound 0.03 µM, first compound 1 µM
[23] = second compound 0.03 µM, first compound 3.16 µM
[24] = second compound 0.03 µM, first compound 10 µM
[25] = second compound 0.0949 µM, first compound 0.0316 µM
[26] = second compound 0.0949 µM, first compound 0.1 µM
[27] = second compound 0.0949 µM, first compound 0.316 µM
[28] = second compound 0.0949 µM, first compound 1 µM
[29] = second compound 0.0949 µM, first compound 3.16 µM
[30] = second compound 0.0949 µM, first compound 10 µM
[31] = second compound 0.3 µM, first compound 0.0316 µM
[32] = second compound 0.3 µM, first compound 0.1 µM
[33] = second compound 0.3 µM, first compound 0.316 µM
[34] = second compound 0.3 µM, first compound 1 µM
[35] = second compound 0.3 µM, first compound 3.16 µM
[36] = second compound 0.3 µM, first compound 10 µM
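Note: spheroids exposed to compounds for seven days before readout.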

CCC(CC)c1cc(NC2CCC(N)C2)n2nccc2n1 (stereo not drawn) + CCn1c(-c2cccnc2C(C)OC)c2c3cc(ccc31)N1CCOC(CC(NC(=O)C(C(C)C)N(C)C(=O)C3(F)CCN(C(=O)C#CC(C)(C)N(C)C)CC3)C(=O)N3CCCC(N3)C(=O)OCC(C)(C)C2)C1
inactive: viability, T/C [1] 101% | viability, T/C [2] 96.9% | viability, T/C [3] 115% | viability, T/C [4] 91.9% | viability, T/C [7] 109% | viability, T/C [8] 115% | viability, T/C [9] 108% | viability, T/C [10] 81% | viability, T/C [13] 90.4% | viability, T/C [14] 114% | viability, T/C [15] 120% | viability, T/C [16] 82.3% | viability, T/C [19] 104% | viability, T/C [20] 99% | viability, T/C [21] 107% | viability, T/C [22] 77.6% | viability, T/C [25] 90.8% | viability, T/C [26] 91.5% | viability, T/C [27] 95.8% | viability, T/C [28] 60.1% | viability, T/C [31] 94% | viability, T/C [32] 86.1% | viability, T/C [33] 86.3% | viability, T/C [34] 44.2%
active: viability, T/C [5] 2.57% | viability, T/C [6] 3.88% | viability, T/C [11] 2.93% | viability, T/C [12] 3.96% | viability, T/C [17] 3.02% | viability, T/C [18] 4.29% | viability, T/C [23] 3.09% | viability, T/C [24] 4.72% | viability, T/C [29] 3.31% | viability, T/C [30] 4.2% | viability, T/C [35] 3.73% | viability, T/C [36] 3.93%
6.07: pIC50 (second compound 0.3 µM)
5.81: pIC50 (second compound 0.03 µM)
5.76: pIC50 (second compound 0.000949 µM)
5.80: pIC50 (second compound 0.003 µM) | pIC50 (second compound 0.00949 µM)
5.91: pIC50 (second compound 0.0949 µM)

CCN1CCN(Cc2ccc(Nc3ncc(F)c(-c4cc(F)c5nc(C)n(C(C)C)c5c4)n3)nc2)CC1 + C=CC(=O)N1CCN(c2nc(OCC3CCCN3C)nc3c(F)c(-c4nc(N)cc(C)c4C(F)(F)F)c(Cl)cc23)C(C)C1
6.82: pIC50 (second compound 0.0316 µM)
inactive: viability, T/C (second compound 0.00316 µM, first compound 0.00316 µM) 87.5% | viability, T/C (second compound 0.00316 µM, first compound 0.01 µM) 77.2% | viability, T/C (second compound 0.00316 µM, first compound 0.0316 µM) 68.7% | viability, T/C (second compound 0.00316 µM, first compound 0.1 µM) 56.6% | viability, T/C (second compound 0.00316 µM, first compound 0.316 µM) 45.4% | viability, T/C (second compound 0.00316 µM, first compound 1 µM) 40.4% | viability, T/C (second compound 0.01 µM, first compound 0.00316 µM) 91.4% | viability, T/C (second compound 0.01 µM, first compound 0.01 µM) 79.8% | viability, T/C (second compound 0.01 µM, first compound 0.0316 µM) 73.3% | viability, T/C (second compound 0.01 µM, first compound 0.1 µM) 52.1% | viability, T/C (second compound 0.01 µM, first compound 0.316 µM) 46.8% | viability, T/C (second compound 0.01 µM, first compound 1 µM) 40.2% | viability, T/C (second compound 0.0316 µM, first compound 0.00316 µM) 89.4% | viability, T/C (second compound 0.0316 µM, first compound 0.01 µM) 81.8% | viability, T/C (second compound 0.0316 µM, first compound 0.0316 µM) 73.6% | viability, T/C (second compound 0.0316 µM, first compound 0.1 µM) 53.6% | viability, T/C (second compound 0.0316 µM, first compound 0.316 µM) 42.5% | viability, T/C (second compound 0.0316 µM, first compound 1 µM) 36.6% | viability, T/C (second compound 0.1 µM, first compound 0.00316 µM) 82.1% | viability, T/C (second compound 0.1 µM, first compound 0.01 µM) 78% | viability, T/C (second compound 0.1 µM, first compound 0.0316 µM) 70.7% | viability, T/C (second compound 0.1 µM, first compound 0.1 µM) 59% | viability, T/C (second compound 0.1 µM, first compound 0.316 µM) 44.6% | viability, T/C (second compound 0.1 µM, first compound 1 µM) 38.7% | viability, T/C (second compound 0.316 µM, first compound 0.00316 µM) 85.6% | viability, T/C (second compound 0.316 µM, first compound 0.01 µM) 79.2% | viability, T/C (second compound 0.316 µM, first compound 0.0316 µM) 77% | viability, T/C (second compound 0.316 µM, first compound 0.1 µM) 58.9% | viability, T/C (second compound 0.316 µM, first compound 0.316 µM) 46.3% | viability, T/C (second compound 0.316 µM, first compound 1 µM) 39.8% | viability, T/C (second compound 1 µM, first compound 0.00316 µM) 95.1% | viability, T/C (second compound 1 µM, first compound 0.01 µM) 75.4% | viability, T/C (second compound 1 µM, first compound 0.0316 µM) 73.6% | viability, T/C (second compound 1 µM, first compound 0.1 µM) 57.5% | viability, T/C (second compound 1 µM, first compound 0.316 µM) 46.1% | viability, T/C (second compound 1 µM, first compound 1 µM) 45.9%
6.68: pIC50 (second compound 0.00316 µM) | pIC50 (second compound 0.1 µM)
6.51: pIC50 (second compound 1 µM)
6.74: pIC50 (second compound 0.01 µM)
6.65: pIC50 (second compound 0.316 µM)

CC(=O)OC12COC1CC(O)C1(C)C(=O)C(O)C3=C(C)C(OC(=O)C(O)C(NC(=O)OC(C)(C)C)c4ccccc4)CC(O)(C(OC(=O)c4ccccc4)C21)C3(C)C (stereo not drawn) + CCn1c(-c2cc(N3CCN(C)CC3)cnc2C(C)OC)c2c3cc(ccc31)-c1csc(n1)CC(NC(=O)C1CC1C)C(=O)N1CCCC(N1)C(=O)OCC(C)(C)C2
> 7.50: pIC50 (second compound 0.000949 µM) | pIC50 (second compound 0.003 µM) | pIC50 (second compound 0.00949 µM) | pIC50 (second compound 0.03 µM) | pIC50 (second compound 0.0949 µM) | pIC50 (second compound 0.3 µM)
active: viability, T/C [1] 3.43% | viability, T/C [2] 4.27% | viability, T/C [3] 3.99% | viability, T/C [4] 4.95% | viability, T/C [5] 5.23% | viability, T/C [6] 5.38% | viability, T/C [7] 2.96% | viability, T/C [8] 1.47% | viability, T/C [9] 2.97% | viability, T/C [10] 2.21% | viability, T/C [11] 2.97% | viability, T/C [12] 2.38% | viability, T/C [13] 1.88% | viability, T/C [14] 2.6% | viability, T/C [15] 2% | viability, T/C [16] 2.25% | viability, T/C [17] 2.05% | viability, T/C [18] 2.33% | viability, T/C [19] 1.57% | viability, T/C [20] 1.84% | viability, T/C [21] 1.46% | viability, T/C [22] 1.65% | viability, T/C [23] 2.16% | viability, T/C [24] 1.64% | viability, T/C [25] 1.97% | viability, T/C [26] 1.63% | viability, T/C [27] 1.57% | viability, T/C [28] 1.56% | viability, T/C [29] 1.78% | viability, T/C [30] 1.2% | viability, T/C [31] 1.96% | viability, T/C [32] 1.22% | viability, T/C [33] 2.82% | viability, T/C [34] 1.84% | viability, T/C [35] 1.23% | viability, T/C [36] 1.25%

O=C(c1ccc(F)c(F)c1Nc1ccc(I)cc1F)N1CC(O)([C@@H]2CCCCN2)C1
inactive: viability, T/C (compound 0.00316 µM) 85.8% [middle of 4 runs] | viability, T/C (compound 0.01 µM) 79.5% [middle of 4 runs] | viability, T/C (compound 0.0316 µM) 56.3% [middle of 4 runs] | viability, T/C (compound 0.1 µM) 21.3% (2×) and 13.7% and 21.1%
active: viability, T/C (compound 0.316 µM) 2.49% [middle of 4 runs] | viability, T/C (compound 1 µM) 0.68% [middle of 4 runs]
39.2 nM [middle of 4 runs]: IC50 (curve of compound)
